Experiment [1] deals with T1, BSA (Bos taurus, UniProt P02769).
T1 construct: purchased Sigma-Aldrich Co
Particulars: cited from earlier work.

For experiment [2] the following is noted: cited from earlier work.
The conditions of experiment [3]: cited from earlier work. This is another data set of the same source.
In the next experiment the target is CT DNA. Particulars: cited from earlier work.
For another experiment, the system named is EB-DNA adduct (CT DNA). Particulars: cited from earlier work.
The target of experiment [4] is T1, BSA. The settings on record: cited from earlier work. This is another data set of the same source.
Experiment [5] deals with T2, HSA (Homo sapiens, UniProt P02768).
T2 construct: purchased Sigma-Aldrich Co
Particulars: cited from earlier work.

Experiment [6] has as its target T2, HSA. Particulars: cited from earlier work. This is another data set of the same source.
Experiment [7] has as its system Xanthomonas campestris ATCC 1395. Briefly: MIC determination. Type of experiment: cell-based. The settings on record: Xanthomonas campestris, ATCC1395, 24 h, read-out: MIC X. campestris. On the procedure: (§1) S2 Antibacterial activity
(§2) The antimicrobial activity of the compounds was evaluated by determining their respective MIC values towards two Gram–(–) (Escherichia coli NCTC 29212 (E. coli) and Xanthomonas campestris ATCC 1395 (X. campestris)) and two Gram–(+) (Staphylococcus aureus ATCC 6538 (S. aureus) and Bacillus subtilis ATCC 6633 (B. subtilis)) bacterial species. Cultures of these microbial strains were grown on a rich selective agar medium and stored at 4°C. The selective media used were Nutrient Agar or Broth for B. subtilis and S. aureus, Yeast Mold Agar or Broth for X. campestris and Luria Agar or Broth for E. coli. Cells picked from the surface of the stored cultures were used to initiate liquid pre–cultures of the same selective medium at an initial turbidity of roughly 1 McFarland unit. Pre–cultures were incubated for 24 h in a rotary shaking incubator and subsequently they were used to inoculate the test cultures used for the determination of MIC at an initial turbidity of 0.5 McFarland units. The test cultures consisted of Mueller –Hinton broth (Deben Diagnostics Ltd) containing different concentrations of the compounds.
(§3) Different concentrations were achieved as follows: the compounds were freshly dissolved in DMSO to a concentration of 1 mg mL–1 and they were diluted with DMSO, using the method of progressive double dilution. Therefore, working solutions with decreasing concentrations of the compounds under investigation were achieved. The working solutions were subsequently diluted to the final desired concentration by addition to the growth medium at a proportion of 2:98. MIC values were determined as the lowest concentrations of the tested compounds that inhibited visible growth of each respective organism after a 24 h incubation [ S3]. Bacterial growth was determined by measuring the turbidity of appropriately diluted cultures at 600 nm with reference to equally diluted sterile growth medium and the inhibition achieved was calculated by comparing the turbidity of each culture to the average of the turbidity of three non–inhibited cultures. All test cultures were grown in triplicates and for the determination of MIC, growth had to be inhibited in at least two cultures of the triplicate. Incubation temperature at all stages was 37°C except for X. campestris that was cultivated at 28°C [S4].

Experiment [8] deals with Staphylococcus aureus ATCC 6538. The experiment is described as follows: MIC determination. Format: cell-based. The method, then: as §1, §2, §3
Experiment [9] has as its system Bacillus subtilis ATCC 6633. Briefly: MIC determination. Format: cell-based. On the procedure:
as §1, §2, §3

Experiment [10] deals with Escherichia coli NCTC 29212. The experiment is described as follows: MIC determination. Type of experiment: cell-based. The method, then: as §1, §2, §3
For experiment [11] the following is noted: cited from earlier work. This is another data set of the same source.
The nature of a further experiment: DPPH radical scavenging. Particulars: compound 0.1 mM. On the procedure:
(§4) S1 Antioxidant biological assay
The antioxidant activity of the compounds was evaluated via their ability to scavenge in
vitro free radicals such as DPPH and ABTS and to reduce H2O2. All the experiments were carried
S1.1 Determination of the reducing activity of the stable radical DPPH
To an ethanolic solution of DPPH (0.1 mM) an equal volume solution of the compounds
(0.1 mM) in ethanol was added. Absolute ethanol was also used as control solution. The absorbance
at 517 nm was recorded at room temperature after 30 and 60 min, in order to examine the possible
existence of a potential time–dependence of the DPPH radical scavenging activity [S1]. The DPPH–
scavenging activity of the compounds was expressed as the percentage reduction of the absorbance
values of the initial DPPH solution (DPPH%). NDGA and BHT were used as reference compounds. […]

Experiment [12] is described as follows: Reduction of hydrogen peroxide. The settings on record: compound 0.1 mM. On the procedure: as §4
(§5) The antioxidant activity of the compounds was evaluated via their ability to scavenge in […]
(§6) vitro free radicals such as DPPH and ABTS and to reduce H2O2. […]
S1.3 Reduction of hydrogen peroxide
The ability of the compounds to reduce hydrogen peroxide (H2O2) was estimated according […]
to the method described in the literature [S2]. The reaction mixture contained 20 μL of each of the […]
tested compounds (0.1 mM) and 5 μL H 2O2 solution (40 mM) in phosphate buffer (50 mM, pH 7.4).
The absorbance was measured at 230 nm after 10 min. The antioxidant activity (reduction of […]

Experiment [13] deals with S. aureus, B. subtilis, E. coli, X. campestris. Briefly: MIC stated for all tested bacterial strains. Type of experiment: cell-based. The settings on record: all tested microbes. The method, then:
as §1, §2, §3

Experiment [14] in a line: ABTS radical cation scavenging. The settings on record: compound 0.1 mM. On the procedure: as §4, §5, §6
S1.2 Assay of radical cation ABTS–scavenging activity
The ABTS assay was performed to determine the activity of the compounds to scavenge the […]
radical cation ABTS. Initially, a water solution of ABTS was prepared (2 mM). ABTS radical cation […]
(ABTS+·) was produced by the reaction of ABTS stock solution with potassium persulfate (0.17 […]
mM) and the mixture was stored in the dark at room temperature for 12–16 h before its use. The […]
ABTS was oxidized incompletely because the stoichiometric reaction ratio of ABTS and potassium […]
persulfate is 1:0.5. The absorbance became maximal and stable only after more than 6 h of reaction […]
although the oxidation of the ABTS started immediately. The radical was stable in this form for […]
more than 2 days when allowed to stand in the dark at room temperature. Afterwards, the ABTS+· […]
solution was diluted in ethanol to an absorbance of 0.70 at 734 nm and 10 μL of diluted compounds or standards (0.1 mM) in DMSO were added. The absorbance was recorded out exactly 1 min after […]
initial mixing [S1]. The ABTS radical scavenging activity was expressed as the percentage inhibition of the absorbance of the initial ABTS solution (ABTS%). […]

Values joined by “and” are separate entries in the source; they are usually repeats but may differ in a detail not shown here. Equal entries are not always repeated. Where two headings read alike, the source gives them in different places.

T2 sequence (P02768 25-609): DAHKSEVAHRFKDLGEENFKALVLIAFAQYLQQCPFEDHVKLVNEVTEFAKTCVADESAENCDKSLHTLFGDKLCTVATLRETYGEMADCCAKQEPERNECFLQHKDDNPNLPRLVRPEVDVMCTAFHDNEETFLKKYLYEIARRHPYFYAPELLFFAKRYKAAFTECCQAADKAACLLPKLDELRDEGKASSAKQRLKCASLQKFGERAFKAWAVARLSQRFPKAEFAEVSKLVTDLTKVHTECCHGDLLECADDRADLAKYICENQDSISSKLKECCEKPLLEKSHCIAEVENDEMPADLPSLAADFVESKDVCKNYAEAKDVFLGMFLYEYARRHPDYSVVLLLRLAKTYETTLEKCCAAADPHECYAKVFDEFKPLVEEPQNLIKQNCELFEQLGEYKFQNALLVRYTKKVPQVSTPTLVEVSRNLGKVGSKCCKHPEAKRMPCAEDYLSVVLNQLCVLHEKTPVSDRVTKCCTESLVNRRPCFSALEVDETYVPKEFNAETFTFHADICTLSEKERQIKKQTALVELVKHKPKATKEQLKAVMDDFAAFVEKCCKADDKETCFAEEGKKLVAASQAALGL
T1 sequence (P02769 25-607): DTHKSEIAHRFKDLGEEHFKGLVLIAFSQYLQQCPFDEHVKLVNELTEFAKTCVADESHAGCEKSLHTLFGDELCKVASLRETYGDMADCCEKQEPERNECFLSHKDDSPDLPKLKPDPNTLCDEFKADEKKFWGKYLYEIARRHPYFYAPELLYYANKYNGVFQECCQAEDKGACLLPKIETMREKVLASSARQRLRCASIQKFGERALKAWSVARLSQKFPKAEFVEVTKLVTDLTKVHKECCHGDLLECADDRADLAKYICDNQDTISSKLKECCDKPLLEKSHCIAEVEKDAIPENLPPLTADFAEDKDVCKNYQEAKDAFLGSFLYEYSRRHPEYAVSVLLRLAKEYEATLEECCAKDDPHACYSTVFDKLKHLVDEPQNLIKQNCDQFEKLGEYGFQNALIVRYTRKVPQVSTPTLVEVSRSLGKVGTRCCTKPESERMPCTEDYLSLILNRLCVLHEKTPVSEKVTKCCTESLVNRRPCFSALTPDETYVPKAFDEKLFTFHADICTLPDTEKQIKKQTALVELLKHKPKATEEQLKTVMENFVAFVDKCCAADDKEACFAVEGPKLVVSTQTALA

As to `O=Cc1cc(Br)cc(Br)c1O` [3,5-diBr-saloH, 3,5-dibromo-salicylaldehyde], at BSA [1], the “BSA-binding constant K, Marker: Ibuprofen” value is listed as 7.11 (±0.29) × 10^5 M^−1; the “BSA-binding constant K, No Marker” value is reported as 2.97 (±0.16) × 10^6 M^−1; the “BSA-binding constant K, Marker: Warfarin” value was 2.84 (±0.10) × 10^5 M^−1. In addition, in experiment [2], the “DPPH% (30 min)” value was 7.97 ± 0.53% and the “DPPH% (60 min)” value is 10.22 ± 0.30%. In addition, the H2O2% in experiment [3] is reported as 76.05 ± 1.51%. For the same molecule, the “Kb (DNA-binding constant)” value on CT DNA is 3.71 (±0.14) × 10^5 M^−1. In addition, in the experiment with EB-DNA adduct (CT DNA), the “KSV (Stern–Volmer constant), EB-DNA” value is 3.95 (±0.10) × 10^4 M^−1; the “kq (EB-DNA quenching constant)” value is on record as 1.72 (±0.04) × 10^12 M^−1s^−1; the “ΔΙ/Ι0 (%) EB-DNA fluorescence quenching” value is on record as 46.6%. At BSA [4], the “K BSA-binding constant” value is reported as 2.97 (±0.16) × 10^6 M^−1 and the “kq BSA-quenching constant” value is given as 3.65 (±0.25) × 10^13 M^−1 s^−1. Moreover, at HSA [5], the “K HSA-binding constant” value is 4.04 (±0.30) × 10^5 M^−1 and the “kq HSA-quenching constant” value is reported as 1.72 (±0.06) × 10^13 M^−1 s^−1. Also, on HSA [6], the “HSA-binding constant K, Marker: Ibuprofen” value is 4.56 (±0.37) × 10^4 M^−1; the “HSA-binding constant K, No Marker” value is given as 4.04 (±0.30) × 10^5 M^−1; the “HSA-binding constant K, Marker: Warfarin” value is 1.23 (±0.05) × 10^5 M^−1. In addition, in experiment [7], the MIC was 25 µg/mL and 89 µM. For the same molecule, the minimal inhibitory concentration (MIC) in [8] (Staphylococcus aureus, ATCC6538, 24 h, read-out: MIC S. aureus) was 25 µg/mL and 89 µM. For the same molecule, in [9] (Bacillus subtilis, ATCC6633, 24 h, read-out: MIC B. subtilis), the minimum inhibitory concentration (MIC) is 25 µg/mL and 89 µM. The MIC in [10] (Escherichia coli, NCTC29212, 24 h, read-out: MIC E. coli) is 50 µg/mL and 179 µM. Moreover, in experiment [11], the ABTS% was 16.55 ± 0.31%.

On to `O=Cc1cc(Cl)cc(Cl)c1O` [3,5-diCl-saloH, 3,5-dichloro-salicylaldehyde], for which, at BSA [1], the “BSA-binding constant K, Marker: Ibuprofen” value is 1.35 (±0.55) × 10^5 M^−1; the “BSA-binding constant K, No Marker” value is reported as 1.64 (±0.10) × 10^6 M^−1; the “BSA-binding constant K, Marker: Warfarin” value is recorded as 5.09 (±0.09) × 10^5 M^−1. Also, in experiment [2], the “DPPH% (30 min)” value is recorded as 15.68 ± 0.15% and the “DPPH% (60 min)” value was 18.80 ± 0.52%. For the same molecule, the H2O2% in experiment [3] was 79.92 ± 0.34%. In addition, at CT DNA, the “Kb (DNA-binding constant)” value is recorded as 5.36 (±0.15) × 10^5 M^−1. Further, in the experiment on EB-DNA adduct (CT DNA), the “KSV (Stern–Volmer constant), EB-DNA” value was 3.56 (±0.09) × 10^4 M^−1; the “kq (EB-DNA quenching constant)” value is 1.55 (±0.04) × 10^12 M^−1s^−1; the “ΔΙ/Ι0 (%) EB-DNA fluorescence quenching” value is reported as 43.2%. Further, on BSA [4], the “K BSA-binding constant” value is given as 1.64 (±0.10) × 10^6 M^−1 and the “kq BSA-quenching constant” value is reported as 1.47 (±0.09) × 10^13 M^−1 s^−1. For the same molecule, at HSA [5], the “K HSA-binding constant” value was 6.33 (±0.14) × 10^5 M^−1 and the “kq HSA-quenching constant” value is listed as 7.11 (±0.32) × 10^12 M^−1 s^−1. Further, at HSA [6], the “HSA-binding constant K, Marker: Ibuprofen” value was 1.87 (±0.08) × 10^5 M^−1; the “HSA-binding constant K, No Marker” value is 6.33 (±0.14) × 10^5 M^−1; the “HSA-binding constant K, Marker: Warfarin” value is 1.52 (±0.07) × 10^5 M^−1. Moreover, the MIC in experiment [7] was 50 µg/mL and 262 µM. Also, the MIC in experiment [8] (Staphylococcus aureus, ATCC6538, 24 h; read-out: MIC S. aureus) amounted to 50 µg/mL. For the same molecule, the MIC in [8] (Staphylococcus aureus, ATCC6538; 24 h, value in parentheses; read-out: MIC S. aureus) was 262 µM. Also, the MIC in experiment [9] (Bacillus subtilis, ATCC6633, 24 h; read-out: MIC B. subtilis) is 50 µg/mL. Further, the minimum inhibitory concentration (MIC) in experiment [9] (Bacillus subtilis, ATCC6633; 24 h, value in parentheses; read-out: MIC B. subtilis) came out at 262 µM. In experiment [10] (Escherichia coli, NCTC29212, 24 h; read-out: MIC E. coli), the minimal inhibitory concentration (MIC) came to 50 µg/mL. In experiment [10] (Escherichia coli, NCTC29212; 24 h, value in parentheses; read-out: MIC E. coli), the MIC was determined as 262 µM. Further, the ABTS% in [11] was 84.89 ± 0.16%.

For the molecule `Cc1cc(C(C)(C)C)c(O)c(C(C)(C)C)c1` [BHT, butylated hydroxytoluene, reference compound], in “DPPH radical scavenging”, the “DPPH% (30 min)” value is 61.30 ± 1.16% and the “DPPH% (60 min)” value came out at 79.78 ± 1.12%.

`CC[n+]1c(-c2ccccc2)c2cc(N)ccc2c2ccc(N)cc21.[Br-]` [EB, 3,8-diamino-5-ethyl-6-phenyl-phenanthridinium bromide]: the “Kb (DNA-binding constant)” value at CT DNA (classical intercalator) is listed as 1.23 (±0.07) × 10^5 M^−1.

As for `O=C1O[C@H]([C@@H](O)CO)C(O)=C1O` [L-ascorbic acid, reference compound], in [12], the H2O2% is on record as 60.80 ± 0.20%.

`CC(Cc1ccc(O)c(O)c1)C(C)Cc1ccc(O)c(O)c1` (stereo not shown) [NDGA, nordihydroguaiaretic acid, reference compound]: in the experiment “DPPH radical scavenging”, the “DPPH% (30 min)” value is 87.08 ± 0.12% and the “DPPH% (60 min)” value came out at 87.47 ± 0.12%.

For the molecule `CC(=O)[O-].CC(=O)[O-].[Pd+2]` [Pd(CH3COO)2], the minimal inhibitory concentration (MIC) in experiment [13] is more than 200 µg/mL.

Take `Cc1c(C)c2c(c(C)c1O)CCC(C)(C(=O)O)O2` (stereo not shown) [Trolox, 6-hydroxy-2,5,7,8-tetramethylchromane-2-carboxylic acid, reference compound]: the ABTS% in experiment [14] amounted to 98.10 ± 0.48%.

The MIC is the smallest concentration in the dilution series that meets the test's criterion for growth inhibition.

These data come from paper PMC9323974, “Palladium(II) Complexes of Substituted Salicylaldehydes: Synthesis, Characterization and Investigation of Their Biological Profile” (Pharmaceuticals, 2022).
